What was measured:
[1] = test system: Canis familiaris; test: Inhibitory activity against LTB4 production upon intravenous administration at a dose of 1.0 mg/Kg (0.08-6.0 hour) in dog ex vivo model; type: functional; settings: Canis lupus familiaris
[2] = test system: Canis familiaris; test: Inhibitory activity against LTB4 production upon oral administration at a dose of 1.0 mg/Kg (0.08-6.0 hour) in dog ex vivo model; type: functional; settings: Canis lupus familiaris
[3] = test system: Canis familiaris; test: Inhibitory activity against LTB4 production upon intravenous administration at a dose of 1.0 mg/Kg (0.08 hours) in dog ex vivo model; type: functional; settings: Canis lupus familiaris
[4] = test system: Canis familiaris; test: Inhibitory activity against LTB4 production upon oral administration at a dose of 1.0 mg/Kg (1 hour) in dog ex vivo model; type: functional; settings: Canis lupus familiaris
[5] = test system: Canis familiaris; test: Duration of action on LTB4 production upon intravenous administration at a dose of 1.0 mg/Kg in dog ex vivo model; type: functional, Canis lupus familiaris
[6] = test system: Canis familiaris; test: Inhibitory activity against LTB4 production upon intravenous administration at a dose of 1.0 mg/Kg (0.08-1 hour) in dog ex vivo model; type: functional; settings: Canis lupus familiaris
[7] = test system: Canis familiaris; test: Duration of action on LTB4 production upon oral administration at a dose of 1.0 mg/Kg in dog ex vivo model; type: functional, Canis lupus familiaris
[8] = test system: Canis familiaris; test: Inhibitory activity against LTB4 production upon oral administration at a dose of 1.0 mg/Kg (0.25-6.0 hour) in dog ex vivo model; type: functional; settings: Canis lupus familiaris
[9] = test system: Canis familiaris; test: Inhibitory activity against LTB4 production upon intravenous administration at a dose of 1.0 mg/Kg (0.25-0.5 hour) in dog ex vivo model; type: functional; settings: Canis lupus familiaris
[10] = test system: Canis familiaris; test: Inhibitory activity against LTB4 production upon intravenous administration at a dose of 1.0 mg/Kg (3 hours) in dog ex vivo model; type: functional; settings: Canis lupus familiaris
[11] = test system: Canis familiaris; test: Inhibitory activity against LTB4 production upon oral administration at a dose of 1.0 mg/Kg (0.5 hours) in dog ex vivo model; type: functional; settings: Canis lupus familiaris
[12] = test system: Canis familiaris; test: Inhibitory activity against LTB4 production upon intravenous administration at a dose of 1.0 mg/Kg (0.08-0.5 hour) in dog ex vivo model; type: functional; settings: Canis lupus familiaris
[13] = test system: Canis familiaris; test: Inhibitory activity against LTB4 production upon oral administration at a dose of 1.0 mg/Kg (0.5-1 hour) in dog ex vivo model; type: functional; settings: Canis lupus familiaris

Structure (SMILES): NC(=O)N(O)CC1=Cc2cc(Oc3ccccc3)ccc2OC1
- inhibition in vivo at 1 mg/kg [1]: > 95%
- inhibition in vivo at 1 mg/kg [2]: > 95%

Structure (SMILES): NC(=O)N(O)CC1=Cc2ccc(Oc3ccccc3)cc2OCC1
- inhibition in vivo at 1 mg/kg [3]: > 95%
- inhibition in vivo at 1 mg/kg [4]: 28%
- Duration of action [5]: 1.1

Structure (SMILES): NC(=O)N(O)CC1=Cc2cc(Oc3ccccc3)ccc2SCC1
- inhibition in vivo at 1 mg/kg [6]: > 95%
- Duration of action [5]: 2.8

Structure (SMILES): CNC(=O)N(O)CC1=Cc2cc(Oc3ccc(F)cc3)ccc2OCC1
- Duration of action [7]: 13
- inhibition in vivo at 1 mg/kg [8]: > 95%
- inhibition in vivo at 1 mg/kg [6]: > 95%
- Duration of action [5]: 13

Structure (SMILES): NC(=O)N(O)CC1=Cc2cc(Oc3ccc(F)cc3)ccc2OCC1
- inhibition in vivo at 1 mg/kg [9]: > 95%
- Duration of action [7]: 10
- inhibition in vivo at 1 mg/kg [4]: > 95%
- Duration of action [5]: >24

Structure (SMILES): NC(=O)N(O)CC1=Cc2cc(Oc3ccccc3)ccc2OCC1
- Duration of action [7]: 9.1
- inhibition in vivo at 1 mg/kg [10]: 80%
- inhibition in vivo at 1 mg/kg [11]: 94%
- Duration of action [5]: 19.4

Structure (SMILES): CC(c1cc2ccccc2s1)N(O)C(N)=O (stereo unspecified) [ZILEUTON]
- inhibition in vivo at 1 mg/kg [12]: > 90%
- inhibition in vivo at 1 mg/kg [13]: > 90%

Reference: ChEMBL document CHEMBL1151072, “Benzoxepin and benzothiepin derivatives as potent, orally active inhibitors of 5-lipoxygenase” (Bioorg Med Chem Lett, 1994)
